Reference: patent US20090170846A1, “INHIBITORS OF THE HIV INTEGRASE ENZYME” (Pfizer Inc, priority 2005, published 2009)
Where two headings read alike, the source gives them in different places.

Key:
[1] = target: T1, Full-length wild type HIV-1 integrase (SF1) (Human immunodeficiency virus type 1 group M subtype B, UniProt P04585); experiment: Integrase strand-transfer scintillation proximity assay; assay type: biochemical
T1 construct: made in house; host or cells: E. coli BL21 (DE3)
Text: Integrase Strand-Transfer Scintillation Proximity Assay
Oligonucleotides: Oligonucleotide #1-5′-(biotin)[…]-3′ (SEQ ID NO: 1) and oligonucleotide #2-5′-[…]-3′ (SEQ ID NO: 2), were synthesized by TriLink BioTechnologies, Inc. (San Diego, Calif.). The annealed product represents preprocessed viral ds-DNA derived from the LTR U5 sequence of the viral genome. A ds-DNA control to test for non-specific interactions was made using a 3′ di-deoxy derivative of oligonucleotide #1 annealed to oligonucleotide #2. The CA overhang at the 5′ end of the non-biotinylated strand of the ds-DNA was created artificially by using a complimentary DNA oligonucleotide shortened by 2 base pairs. This configuration eliminates the requisite 3′ processing step of the integrase enzyme prior to the strand-transfer mechanism.
Host ds-DNA was prepared as an unlabeled and [^3H]-thymidine labeled product from annealed oligonucleotide #3-5-[…]-3′ (SEQ ID NO: 3), and oligonucleotide #4-1-5′-[…]-3′ (SEQ ID NO: 4), both synthesized by TriLink BioTechnologies, Inc. (San Diego, Calif.). The annealed product had overhanging 3′ ends of poly(dA). Host DNA was custom radiolabeled by PerkinElmer Life Sciences Inc. (Boston, Mass.) using an enzymatic method with a 12/1 ratio of [methyl-^3H]dTTP/cold ds-DNA to yield 5′-blunt end ds-DNA with a specific activity of >900 Ci/mmol. The radiolabeled product was purified using a NENSORB cartridge and stored in stabilized aqueous solution (PerkinElmer). The final radiolabeled product had six [^3H]-thymidine nucleotides at both 5′ ends of the host ds-DNA.
Reagents: Streptavidin-coated polyvinyltoluene (PVT) SPA beads were purchased from Amersham Biosciences (Piscataway, N.J.). Cesium chloride was purchased from Shelton Scientific, Inc. (Shelton, Conn.). White, polystyrene, flat-bottom, non-binding surface, 96-well plates were purchased from Corning. All other buffer components were purchased from Sigma (St. Louis, Mo.) unless otherwise indicated.
Enzyme Construction Full-length wild type HIV-1 integrase (SF1) sequence (amino acids 1-289) was constructed in a pET24a vector (Novagen, Madison, Wis.). The construct was confirmed through DNA sequencing.
Enzyme Purification Full length wild-type HIV Integrase was expressed in E. coli BL21 (DE3) cells and induced with 1 mM isopropyl-1 thio-β-D-galactopyranoside (IPTG) when cells reached an optical density between 0.8-1.0 at 600 nm. Cells were lysed by microfluidation in 50 mM HEPES pH 7.0, 75 mM NaCl, 5 mM DTT, 1 mM 4-(2-Aminoethyl)benzenesulfonylfluoride HCl (AEBSF). Lysate was then centrifuged 20 minutes at 11 k rpm in GSA rotor in Sorvall RC-5B at 4° C. Supernant was discarded and pellet resuspended in 50 mM HEPES pH 7.0, 750 mM NaCl, 5 mM DTT, 1 mM AEBSF and homogenized in a 40 mL Dounce homogenizer for 20 minutes on ice. Homogenate was then centrifuged 20 minutes at 11 k rpm in SS34 rotor in Sorvall RC-5B at 4° C. Supernant was discarded and pellet resuspended in 50 mM HEPES pH 7.0, 750 mM NaCl, 25 mM CHAPS, 5 mM DTT, 1 mM AEBSF. Preparation was then centrifuged 20 minutes at 11 k rpm in SS34 rotor in Sorvall RC-5B at 4° C.
Supernant was then diluted 1:1 with 50 mM HEPES pH 7.0, 25 mM CHAPS, 1 mM DTT, 1 mM AEBSF and loaded onto a Q-Sepharose column pre-equilibrated with 50 mM HEPES, pH 7.0, 375 mM NaCl, 25 mM CHAPS, 1 mM DTT, 1 mM AEBSF. The flow through peak was collected and NaCl diluted to 0.1 M with 50 mM HEPES pH 7.0, 25 mM CHAPS, 1 mM DTT, 0.5 mM AEBSF and loaded onto a SP-Sepharose column pre-equilibrated with 50 mM HEPES pH 7.0, 100 mM NaCl, 25 mM CHAPS, 1 mM DTT, 0.5 mM AEBSF. After washing the column with the equilibration buffer, a 100 to 400 mM NaCl gradient was run. The eluted integrase was concentrated and run on a S-300 gel diffusion column using 50 mM HEPES pH 7.0, 500 mM NaCl, 25 mM CHAPS, 1 mM DTT, 0.5 mM AEBSF. The peak from this column was concentrated to 0.76 mg/mL and stored at −70° C. and later used for strand transfer assays. […]

[2] = system: RF strain of HIV-1 in CEM-SS cells; experiment: HIV-1 cell protection assay (XTT dye reduction); assay type: cell-based
Procedure, shortened: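 CEM-SS cells infected at an moi giving about 90% kill (mock-infected for toxicity) and exposed to half-log compound dilutions for six days; XTT/PMS added for 4 h, formazan read at 450 nm. EC50 as protection to 50% of uninfected control, CC50 from uninfected cells, therapeutic index as CC50/EC50.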

[3] = integrase strand-transfer SPA, read-out: IC50
[4] = Human immunodeficiency virus 1, 144 h, HIV-1 RF, CEM-SS cells, XTT, six days, read-out: EC50
[5] = Human immunodeficiency virus 1, CEM-SS, 144 h

| SMILES | IC50 [1, 3] | EC50 [2, 4] | EC50 [2, 5] | IC50 [1] |
| --- | --- | --- | --- | --- |
| NC(=O)[C@@H]1CCCN1S(=O)(=O)c1cn(Cc2ccc(F)cc2F)c2cnc(C(=O)NO)cc12 [Example 36, 3-{[(2S)-2-(aminocarbonyl)pyrrolidin-1-yl]sulfonyl}-1-(2,4-difluorobenzyl)-N-hydroxy-1H-pyrrolo[2,3-c]pyridine-5-carboxamide] | 0.197 µM | 0.34 µM | – | – |
| CN(O)C(=O)c1cc2c(NS(C)(=O)=O)cn(Cc3ccc(F)cc3)c2cn1 [Example 6, 1-(4-fluorobenzyl)-N-hydroxy-N-methyl-3-[(methylsulfonyl)amino]-1H-pyrrolo[2,3-c]pyridine-5-carboxamide] | 0.27 µM | 0.03 µM | – | – |
| CONC(=O)c1cc2c(S(=O)(=O)NCCN3CCOCC3)cn(Cc3ccc(F)cc3F)c2cn1 [Example 40, 1-(2,4-difluorobenzyl)-N-methoxy-3-{[(2-morpholin-4-ylethyl)amino]sulfonyl}-1H-pyrrolo[2,3-c]pyridine-5-carboxamide] | 0.76 µM | 0.052 µM | – | – |
| CONC(=O)c1cc2c(C(=O)NCCCN3CCCC3=O)cn(Cc3ccc(F)cc3)c2cn1 [Example 9, 1-(4-fluorobenzyl)-N~5~- methoxy-N~3~-[3-(2-oxopyrrolidin-1-yl)propyl]-1H-pyrrolo[2,3-c]pyridine-3,5-dicarboxamide] | 0.267 µM | – | 0.042 µM | – |
| CN(C)S(=O)(=O)c1cn(Cc2ccc(F)cc2)c2cnc(C(=O)NO)cc12 [Example 34] | 0.136 µM | 0.047 µM | – | – |
| O=C(NO)c1cc2c(C(=O)N3CCCC(CO)C3)cn(Cc3ccc(F)cc3)c2cn1 (stereo not drawn) [Example 30, 1-(4-fluorobenzyl)-N-hydroxy-3-{[3-(hydroxymethyl)piperidin-1-yl]carbonyl}-1H-pyrrolo[2,3-c]pyridine-5-carboxamide] | 0.072 µM | – | 0.11 µM | – |
| CS(=O)(=O)Nc1cn(Cc2ccc(F)cc2)c2cnc(C(=O)NO)cc12 [Example 5, 1-(4-fluorobenzyl)-N-hydroxy-3-[(methylsulfonyl)amino]-1H-pyrrolo[2,3-c]pyridine-5-carboxamide] | 0.056 µM | 0.0052 µM | – | – |
| CN(O)C(=O)c1cc2c(C(=O)N3CCC[C@H]3CO)cn(Cc3ccc(F)cc3)c2cn1 [Example 22, 1-(4-fluorobenzyl)-N-hydroxy-3-{[(2S)-2-(hydroxymethyl)pyrrolidin-1-yl]carbonyl}-N-methyl-1H-pyrrolo[2,3-c]pyridine-5-carboxamide] | 0.32 µM | – | 0.17 µM | – |
| CN(O)C(=O)c1cc2c(C(=O)NCC34CCCN3CCC4)cn(Cc3ccc(F)cc3)c2cn1 [Example 14, 1-(4-fluorobenzyl)-N~5~- hydroxy-N~5~-methyl-N~3~-(tetrahydro-1H-pyrrolizin-7a(5H)-ylmethyl)-1H-pyrrolo[2,3-c]pyridine-3,5-dicarboxamide] | 2.6 µM | – | 5.4 µM | – |
| CN(O)C(=O)c1cc2c(S(=O)(=O)N3CCC[C@H]3C(N)=O)cn(Cc3ccc(F)cc3F)c2cn1 [Example 42, 3-{[(2S)-2-(aminocarbonyl)pyrrolidin-1-yl]sulfonyl)-1-(2,4-difluorobenzyl)-N-hydroxy-N-methyl-1H-pyrrolo[2,3-c]pyridine-5-carboxamide] | – | 6.3 µM | – | 1.05 µM |
| CONC(=O)c1cc2c(C(=O)NCc3cnn(C)c3C)cn(Cc3ccc(F)cc3)c2cn1 [Example 11, N~3~-[(1,5-dimethyl-1H-pyrazol-4-yl)methyl]-1-(4-fluorobenzyl)-N~5~- methoxy-1H-pyrrolo[2,3-c]pyridine-3,5-dicarboxamide] | 0.53 µM | – | 0.067 µM | – |
| CONC(=O)c1cc2c(C(=O)NC(C)C)cn(Cc3ccc(F)cc3)c2cn1 [Example 47, 1-(4-fluorobenzyl)-N3-isopropyl-N5-methoxy-1H-pyrrolo[2,3-c]pyridine-3,5-dicarboxamide] | 0.249 µM | – | 0.032 µM | – |
